The subject of assay [1] is macrophage specific ABCA1 KO (ABCA1 Cre-LysM) macrophages treated with 5% CSE. As to the kind of experiment: ABCA1 KO (ABCA1 Cre-LysM) mouse macrophages treated with 5% CSE with or without LXR agonist. It is filed as cell-based. The protocol:
FIG. 14. Effect of LXR dependent ABCA1 reexpression on cigarette smoke induced pro-inflammatory and MMP signaling pathways in macrophages. (A.) Western Blot analysis of JNK phosphorylation (oxidative stress activated MAP kinase), (B.) mRNA expression analysis of TLR4/Myd88 in mouse macrophages treated with 5% CSE with or without LXR agonist (T0901317-Cayman) in 3 μM concentration. (C-E.) mRNA expression analysis of inflammatory cytokines TNFα (C.), IL-1β (D.) and IL-10 (E.) mouse macrophages isolated from bone marrow of WT (ABCA1 fl/fl mice) and macrophage specific ABCA1 KO (ABCA1 Cre-LysM) treated with 5% CSE with or without LXR agonist (T0901317-Cayman) in 3 μM concentration. (F-H.) Analysis of MMP activation mouse macrophages isolated from bone marrow of WT (ABCA1 fl/fl mice) and macrophage specific ABCA1 KO (ABCA1 Cre-LysM) treated with 5% CSE with or without LXR agonist (T0901317-Cayman) in 3 μM concentration. MMP-9 and -13 mRNA expression (F.), MMP-9 mRNA expression with LXR agonist treatment, (H.) MMP-9 activity assayed by gelatin zymography. β-Actin was used as a housekeeping gene control for RT-PCR. Values are presented as statistically significant when *p<0.05, **p<0.01, ***p<0.001 when compared to controls and #p<0.05 compared to 5% CSE.
In these experiments both mouse peritoneal and mouse bone marrow derived macrophages (BMdM) were utilized. Mouse peritoneal macrophages were isolated from peritoneal cavities of 3% thioglycolate injected mice on the 5th day from injection. To compare expression of genes in vitro and in vivo peritoneal macrophages were isolated from mice exposed to room air and cigarette smoke. For in vitro analysis cells were seeded on culture plates for 24 h and then treated with CSE. For in vivo analysis cells were collected from peritoneal cavity and mRNA was directly isolated. […] The obtained cells were then counted (usually 100-150 million cells per mouse) and centrifuged for 5 min at 2600 rpm. […] Approximately after 7-10 days of plating the cells become fully differentiated into macrophages and were ready for subsequent experiments. […]

The subject of assay [2] is murine disease models of atherosclerosis. The following applies: mouse, in vivo; cited from earlier work.

For the compound `O=S(=O)(c1ccccc1)N(CC(F)(F)F)c1ccc(C(O)(C(F)(F)F)C(F)(F)F)cc1` [T0901317, N-(2,2,2-trifluoroethyl)-N-[4-[2,2,2-trifluoro-1-hydroxy-1-(trifluoromethyl)ethyl]phenyl]-benzenesulfonamide], the “decrease in MMP-9 activity and expression, MMP-13 expression and TNFα expression” value in assay [1] (ABCA1 KO macrophages) was “not observed”. Also, in assay [1] (ABCA1 macrophage knockout, LXR agonist 3 μM), the “reversal of induction of cytokines by 5% CSE” value is on record as “not able to reverse”. The “reduction of mRNA and activity of MMP-9: dependence on ABCA1” value in assay [1] (WT versus ABCA1 KO macrophages, 5% CSE, LXR agonist 3 μM) was “only in the presence of the ABCA1 transporter”. Besides, in assay [2], the “cholesterol level in serum and liver” value is “lowers”; the development of atherosclerosis result is listed as “inhibits”.

These data come from patent US20160310454A1, “LIVER X RECEPTOR AGONISTS IN THE TREATMENT OF EMPHYSEMA” (priority 2013, published 2016).
